Measured values as given in the NIST ThermoML archive (doi:10.1021/je200373q).
± gives the expanded uncertainty stated by the source.

Experiment: xn = mol fraction of the nth substance listed
Conditions: 101 kPa, Liquid, Vibrating tube method

CCCCCCCCC [nonane] + CCCCCCCC
mass density [kg/m3]
Conditions | x2 = 0.1017 | x2 = 0.2023 | x2 = 0.3016 | x2 = 0.4 | x2 = 0.4987 | x2 = 0.6006 | x2 = 0.7002 | x2 = 0.7986 | x2 = 0.8989
273.15 K | 731.51 ± 0.25 | 730.03 ± 0.25 | 728.78 ± 0.25 | 727.43 ± 0.25 | 725.78 ± 0.25 | 724.52 ± 0.25 | 722.97 ± 0.25 | 721.5 ± 0.25 | 719.99 ± 0.25
278.15 K | 727.69 ± 0.25 | 726.2 ± 0.25 | 724.94 ± 0.25 | 723.57 ± 0.25 | 721.91 ± 0.25 | 720.65 ± 0.25 | 719.08 ± 0.25 | 717.59 ± 0.25 | 716.07 ± 0.25
283.15 K | 723.84 ± 0.25 | 722.35 ± 0.25 | 721.07 ± 0.25 | 719.7 ± 0.25 | 718.01 ± 0.25 | 716.75 ± 0.25 | 715.16 ± 0.25 | 713.66 ± 0.25 | 712.12 ± 0.25
288.15 K | 719.99 ± 0.25 | 718.48 ± 0.25 | 717.19 ± 0.25 | 715.8 ± 0.25 | 714.11 ± 0.25 | 712.83 ± 0.25 | 711.22 ± 0.25 | 709.71 ± 0.25 | 708.16 ± 0.25
293.15 K | 716.12 ± 0.25 | 714.6 ± 0.25 | 713.29 ± 0.25 | 711.9 ± 0.25 | 710.18 ± 0.25 | 708.9 ± 0.25 | 707.27 ± 0.25 | 705.75 ± 0.25 | 704.18 ± 0.26
298.15 K | 712.24 ± 0.25 | 710.7 ± 0.25 | 709.38 ± 0.25 | 707.97 ± 0.25 | 706.24 ± 0.25 | 704.95 ± 0.25 | 703.31 ± 0.26 | 701.76 ± 0.26 | 700.18 ± 0.26
303.15 K | 708.34 ± 0.25 | 706.79 ± 0.25 | 705.46 ± 0.25 | 704.03 ± 0.26 | 702.28 ± 0.25 | 700.97 ± 0.25 | 699.32 ± 0.26 | 697.75 ± 0.26 | 696.15 ± 0.26
308.15 K | 704.41 ± 0.25 | 702.86 ± 0.25 | 701.51 ± 0.25 | 700.07 ± 0.26 | 698.3 ± 0.26 | 696.98 ± 0.26 | 695.31 ± 0.26 | 693.73 ± 0.26 | 692.11 ± 0.26
313.15 K | 700.48 ± 0.26 | 698.9 ± 0.25 | 697.54 ± 0.25 | 696.08 ± 0.26 | 694.3 ± 0.26 | 692.97 ± 0.26 | 691.28 ± 0.26 | 689.68 ± 0.26 | 688.04 ± 0.26
318.15 K | 696.52 ± 0.26 | 694.93 ± 0.26 | 693.55 ± 0.26 | 692.08 ± 0.26 | 690.27 ± 0.26 | 688.92 ± 0.26 | 687.22 ± 0.26 | 685.6 ± 0.26 | 683.95 ± 0.26
323.15 K | 692.53 ± 0.26 | 690.93 ± 0.26 | 689.53 ± 0.26 | 688.05 ± 0.26 | 686.22 ± 0.26 | 684.87 ± 0.26 | 683.14 ± 0.26 | 681.5 ± 0.26 | 679.83 ± 0.26
328.15 K | 688.53 ± 0.26 | 686.91 ± 0.26 | 685.49 ± 0.26 | 683.99 ± 0.26 | 682.15 ± 0.26 | 680.78 ± 0.26 | 679.03 ± 0.26 | 677.37 ± 0.26 | 675.69 ± 0.26
333.15 K | 684.5 ± 0.26 | 682.86 ± 0.26 | 681.43 ± 0.26 | 679.91 ± 0.26 | 678.05 ± 0.26 | 676.66 ± 0.26 | 674.89 ± 0.26 | 673.22 ± 0.26 | 671.51 ± 0.26
338.15 K | 680.44 ± 0.26 | 678.78 ± 0.26 | 677.34 ± 0.26 | 675.8 ± 0.26 | 673.91 ± 0.26 | 672.5 ± 0.26 | 670.73 ± 0.26 | 669.03 ± 0.26 | 667.3 ± 0.26
343.15 K | 676.36 ± 0.26 | 674.68 ± 0.26 | 673.22 ± 0.26 | 671.66 ± 0.26 | 669.75 ± 0.26 | 668.33 ± 0.26 | 666.53 ± 0.26 | 664.81 ± 0.26 | 663.06 ± 0.26
348.15 K | 672.25 ± 0.26 | 670.55 ± 0.26 | 669.07 ± 0.26 | 667.5 ± 0.26 | 665.56 ± 0.26 | 664.12 ± 0.26 | 662.3 ± 0.26 | 660.56 ± 0.26 | 658.78 ± 0.26
353.15 K | 668.11 ± 0.26 | 666.39 ± 0.26 | 664.88 ± 0.26 | 663.29 ± 0.26 | 661.33 ± 0.26 | 659.87 ± 0.26 | 658.02 ± 0.26 | 656.27 ± 0.26 | 654.47 ± 0.27
358.15 K | 663.93 ± 0.26 | 662.18 ± 0.26 | 660.67 ± 0.26 | 659.05 ± 0.26 | 657.07 ± 0.26 | 655.6 ± 0.26 | 653.72 ± 0.27 | 651.94 ± 0.27 | 650.1 ± 0.27
363.15 K | 659.72 ± 0.26 | 657.95 ± 0.26 | 656.41 ± 0.26 | 654.78 ± 0.27 | 652.77 ± 0.26 | 651.27 ± 0.26 | 649.36 ± 0.27 | 647.56 ± 0.27 | 645.72 ± 0.27
